The source of these data is US20090275648A1, “MACROCYCLIC GHRELIN RECEPTOR ANTAGONISTS AND INVERSE AGONISTS AND METHODS OF USING THE SAME” (priority 2005, published 2009).

The experiment has as its target T1, human ghrelin receptor (hGHS-R1a) (Homo sapiens, UniProt Q92847).
T1 construct: purchased PerkinElmer BioSignal #RBHGHSM, lot#1887; host or cells: HEK-293 cells, stably transfected; membranes
Description: Competitive radioligand binding assay (ghrelin receptor), [125I]-ghrelin, GHS-R/HEK 293 membranes. Particulars: competition with [125I]-ghrelin. The method, then:
The competitive binding assay at the human growth hormone secretagogue receptor (HGHS-R1a) was carried out analogously to assays described in the literature. (Bednarek M A et al. Structure-function studies on the new growth hormone-releasing peptide ghrelin: minimal sequence of ghrelin necessary for activation of growth hormone secretagogue receptor 1a; J. Med. Chem. 2000, 43, 4370-4376; Palucki, B. L. et al. Spiro(indoline-3,4′-piperidine) growth hormone secretagogues as ghrelin mimetics; Bioorg. Med. Chem. Lett. […], 11, 1955-1957).
Membranes (GHS-R/HEK 293) were prepared from HEK-293 cells stably transfected with the human ghrelin receptor (hGHS-R1a). These membranes were provided by PerkinElmer BioSignal (#RBHGHSM, lot#1887) and utilized at a quantity of 0.71 μg/assay point. • 1. [^125]-Ghrelin (PerkinElmer, #NEX-388); final concentration: 0.0070-0.0085 nM • 2. […] Multiscreen Harvest plates-GF/C (Millipore, #MAHFC1H60) • 4. Deep-well polypropylene titer plate (Beckman Coulter, #267006) • 5. TopSeal-A (PerkinElmer, #6005185) • 6. Bottom seal (Millipore, #MATAH0P00) • 7. MicroScint-0 (PerkinElmer, #6013611) • 8. Binding Buffer: 25 mM Hepes (pH 7.4), 1 mM CaCl2, 5 mM MgCl2, 2.5 mM EDTA, 0.4% BSA
Competition experiments were performed in a 300 μl filtration assay format. • 1. 220 μL of membranes diluted in binding buffer • 2. 40 μL of compound diluted in binding buffer • 3.
Compounds were provided frozen on dry ice at a stock concentration of 10 mM diluted in 100% DMSO and stored at −80° C. until the day of testing. On the test day, compounds were allowed to thaw at rt overnight and then diluted in assay buffer according to the desired test concentrations. Under these conditions, the maximal final DMSO concentration in the assay was 0.1%.
In deep-well plates, 220 μL of diluted cell membranes (final concentration: 0.71 μg/well) were combined with 40 μL of either binding buffer (total binding, N=5), 1 μM ghrelin (non-specific binding, N=3) or the appropriate concentration of test compound N=2 for each test concentration). […] Plates were sealed with TopSeal-A, vortexed gently and incubated at rt for 30 min. The reaction was arrested by filtering samples through Multiscreen Harvest plates (pre-soaked in 0.5% polyethyleneimine) using a Tomtec Harvester, washed 9 times with 500 μL of cold 50 mM Tris-HCl (pH 7.4, 4° C.), and then plates were air-dried in a fumehood for 30 min. A bottom seal was applied to the plates prior to the addition of 25 μL of MicroScint-0 to each well. Plates were than sealed with TopSeal-A and counted for 30 sec per well on a TopCount Microplate Scintillation and Luminescence Counter (PerkinElmer) using a count delay of 60 sec. Results were expressed as counts per minute (cpm).
Data were analyzed by GraphPad Prism (GraphPad Software, San Diego, Calif.) using a variable slope non-linear regression analysis.
Dmax values were calculated using the following formula: […]
where total and non-specific binding represent the cpm obtained in the absence or presence of 1 μM ghrelin, respectively.

The structures appear in SMILES notation. pKi: −log10 of the molar value.

T1 sequence (Q92847 whole entry): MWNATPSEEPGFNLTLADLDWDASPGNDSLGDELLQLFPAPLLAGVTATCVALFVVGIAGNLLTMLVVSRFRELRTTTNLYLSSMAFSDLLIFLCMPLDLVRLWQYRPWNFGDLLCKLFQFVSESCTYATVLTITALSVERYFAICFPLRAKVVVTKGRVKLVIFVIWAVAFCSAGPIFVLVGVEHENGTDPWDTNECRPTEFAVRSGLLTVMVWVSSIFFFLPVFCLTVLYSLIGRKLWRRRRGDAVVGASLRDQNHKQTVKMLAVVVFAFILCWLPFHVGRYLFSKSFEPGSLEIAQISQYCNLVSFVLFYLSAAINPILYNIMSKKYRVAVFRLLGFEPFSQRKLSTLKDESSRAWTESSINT

Consider `CCC(C)[C@@H]1NCCOc2ccccc2/C=C/CNC(=O)[C@@H](Cc2ccccc2)NC(=O)[C@H](C(C)O)N(C)C1=O` (stereo partly shown) [Compound 502], for which the pKi (commonly the Ki on a negative log10 scale, so that one unit is a factor of ten) was 7.00 to 9.00.
